Laboratory results taken from patent EP4714947A1, “CRYSTAL FORM OF PYRIMIDO AZACYCLO COMPOUND, AND PREPARATION METHOD THEREFOR AND USE THEREOF” (TYK Medicines, Inc., priority 2023, dated 2024).
≈ marks a conversion by molar mass, not a printed value. Read-outs that look alike come from different tables or passages of the source.

How the values were obtained:
[1] = system: tumor patients with RET fusion and mutation; conditions: cited from earlier work
[2] = Solid-state stability, 7 days at 60 °C/closed and 40 °C/75% RH (HPLC purity, XRPD); assay type: physicochemical; conditions: for Purity (Area%) 40 °C/ 75%RH / Purity (Area%) 60 °C/ Closed / XRPD 40 °C/ 75%RH / XRPD 60 °C/ Closed: 7 days; for Purity (Area%) 40 °C/ 75%RH / Purity (Area%) 60 °C/ Closed / Initial purity (Area%): HPLC; for Initial purity (Area%): before storage; for XRPD 40 °C/ 75%RH: crystal form after 40 °C/75% RH; for XRPD 60 °C/ Closed: crystal form after 60 °C/closed
Description: HPLC analysis was performed using Agilent HPLC 1260 series instruments. Table 37 HPLC Method for Solubility and Stability Tests

in vivo [3] = conditions: rat, po, 10 mg/kg
Description: (§1) Blood samples were collected at different time points to determine the drug concentration in the rat plasma after administration of the test substance and relevant pharmacokinetic parameters were calculated.
(§2) The specific preparation method was as follows: 10mg of the test sample was taken, 0.5% MC and 1% Tween 80 was added, the resulting mixture was vortex mixed to obtain a solution with a concentration of 1mg/mL. The solution was freshly prepared before use, mixed well through vortex, and set aside for later use.
(§3) Healthy male SD rats or dogs were used for this study. All animals were fasted before administration and resumed feeding 4 hours after administration.
(§4) About 0.1 mL of blood was collected via the jugular vein from each animal, using EDTA or heparin sodium as anticoagulants. After collected, the blood sample was placed on ice and centrifuged to separate the plasma (centrifugation conditions: 10000 rpm, 5 minutes, and 4 °C).
(§5) The plasma samples were analyzed by LC-MS/MS by the analysis department of the experimental institution.

in vivo [4] = conditions: dog, po, 5 mg/kg
Description: (§6) Blood samples were collected at different time points to determine the drug concentration in the dog plasma after administration of the test substance and relevant pharmacokinetic parameters were calculated.
as §2, §3
(§7) (Time points ≤ 2 hours: ± 2 min; other points: ± 15 min.)
as §4, §5

[5] = Pharmacokinetics in rats after a single dose by gavage; conditions: for in vivo exposure levels: rat pharmacokinetic data, compared with free base crystal form I; for AUC0-last / AUCINF / Cmax / T1/2 / Tmax: SD rats, single gavage dose 10mpk, 1mg/ml in 0.5% MC+1% tween 80 (Uniform suspension), 10 mg/kg
Description: as §1, §2, §3, §4, §5

[6] = Pharmacokinetics in dogs after a single dose by gavage; conditions: for in vivo exposure levels: dog pharmacokinetic data, compared with free base crystal form I; for AUC0-last / AUCINF / Cmax / T1/2 / Tmax: dogs, single gavage dose 5mpk, 1mg/ml in 0.5%MC+1% tween 80 (Uniform suspension), 5 mg/kg
Description: as §6, §2, §3, §7, §4, §5

physchem [7] = assay: physchem
[8] = Rough solubility in 17 solvents by visual inspection at room temperature; conditions: for solubility: DMSO
physchem [9] = assay: physchem; remark: listed apart in the source
[10] = Solubility test in biological media and water at 37 °C (HPLC; XRPD of residue); conditions: for Solubility (µg/mL) 2 h / Solubility (µg/mL) 0.5 h / Solubility (µg/mL) 24 h: calculated using free base; for Solubility (µg/mL) 2 h: 120 min; for Solubility (µg/mL) 24 h: 1440 min
[11] = Evaluation of amorphous free base: suspension stirred in solvent at room temperature for 2 days; assay type: physicochemical; conditions: for Result (solid form obtained): suspension stirred at room temperature for 2 days
Description: 100 mg of the amorphous free base sample obtained in the present invention was weighed and a solvent was added to form a suspension. The mixture was stirred at room temperature for 2 days, and the results are as follows: […]

[12] = FaSSIF (pH=6.49), LOQ: ~1.0 µg/mL
[13] = crystal form after 24 h in FaSSIF (pH=6.49)
[14] = crystal form after 24 h in FeSSIF (pH=5.00)
[15] = crystal form after 24 h in SGF (pH=1.19)
[16] = crystal form after 24 h in Water (pH=5.45)

| SMILES | Purity (Area%) 40 °C/ 75%RH [2] | Purity (Area%) 60 °C/ Closed [2] | Initial purity (Area%) [2] | XRPD 40 °C/ 75%RH [2] | XRPD 60 °C/ Closed [2] | AUC0-last [6] | AUCINF [6] | Cmax [6] | T1/2 [6] | AUC0-last [5] | AUCINF [5] | Cmax [5] | T1/2 [5] | Tmax [5] | Tmax [6] | Solubility (µg/mL) 2 h [10, 12] | XRPD (24 h) [10, 13] | XRPD (24 h) [10, 14] | in vivo exposure levels [5] | in vivo exposure levels [6] | further results |
| --- | --- | --- | --- | --- | --- | --- | --- | --- | --- | --- | --- | --- | --- | --- | --- | --- | --- | --- | --- | --- | --- |
| CO[C@]1(C(=O)N[C@@H](C)c2ccc(-n3cc(F)cn3)nc2)CC[C@H](c2nc(C)cc(Nc3cc(C)[nH]n3)n2)CC1 [BLU-667] |  |  |  |  |  |  |  |  |  |  |  |  |  |  |  |  |  |  |  |  | ORR ([1]; patients with medullary thyroid carcinoma): 40%; ORR ([1]; patients with non-small cell lung cancer): 50%; overall remission rate (ORR) ([1]; tumor patients with RET fusion and mutation): 45% |
| CCn1ncc2c(Nc3cc(C)[nH]n3)nc([C@H]3CC[C@](OC)(C(=O)N[C@@H](C)c4cnc(-n5cc(F)cn5)cn4)CC3)nc21 [Free base crystal form III] | 99.253 Area% | 99.212 Area% | 99.316 Area% | Unchanged | Unchanged | 763.5 ng·h/mL | 776.0 ng·h/mL | 151.5 ng/mL | 4.275 h |  |  |  |  |  |  |  |  |  | higher than those of free base crystal form I | higher than those of free base crystal form I | AUC(0-inf) (in vivo [3]): 1260 ng·h/mL; AUC(0-t) (in vivo [3]): 1250 ng·h/mL; Cmax (in vivo [3]): 153 ng/mL; Tmax (in vivo [3]): 6 h; half-life (in vivo [3]): 3.18 h; Tmax (in vivo [4]): 2 h |
| CCn1ncc2c(Nc3cc(C)[nH]n3)nc([C@H]3CC[C@](OC)(C(=O)N[C@@H](C)c4cnc(-n5cc(F)cn5)cn4)CC3)nc21 [Free base crystal form I] |  |  |  |  |  | 673.5 ng·h/mL | 684.0 ng·h/mL | 111.7 ng/mL | 2.835 h | 1172.00 ng·h/mL | 1197.00 ng·h/mL | 158.00 ng/mL | 2.69 h | 4.67 h | 3.0 h |  |  |  |  |  | solubility (physchem [7]; 2-me-thf): 11100 to 12500 µg/mL (≈ 18.9 to 21.2 mM); solubility (physchem [7]; acetone): 7100 to 8300 µg/mL (≈ 12.1 to 14.1 mM); solubility (physchem [7]; dcm): 4600 to 5000 µg/mL (≈ 7.81 to 8.49 mM); solubility (physchem [7]; ea): 2200 to 2300 µg/mL (≈ 3.74 to 3.91 mM); solubility (physchem [7]; etoh): < 600 µg/mL; solubility (physchem [7]; hept): < 600 µg/mL; solubility (physchem [7]; ipa): < 600 µg/mL; solubility (physchem [7]; ipac): 1500 to 1600 µg/mL (≈ 2.55 to 2.72 mM); solubility (physchem [7]; mek): 6300 to 7100 µg/mL (≈ 10.7 to 12.1 mM); solubility (physchem [7]; meoh): ~1200 µg/mL (≈ 2.04 mM); solubility (physchem [7]; mtbe): < 600 µg/mL; solubility (physchem [7]; n-buoh): < 600 µg/mL; solubility (physchem [7]; thf): > 40000 µg/mL; solubility (physchem [7]; tol): < 600 µg/mL; solubility (physchem [7]; water): < 600 µg/mL; solubility [8]: > 40000 µg/mL; solubility ([8]; listed as free base crystal form I): >166700 µg/mL; Solubility (mg/mL) ([8]; THF): 41.7~50.0 mg/mL |
| CCn1ncc2c(Nc3cc(C)[nH]n3)nc([C@H]3CC[C@](OC)(C(=O)N[C@@H](C)c4cnc(-n5cc(F)cn5)cn4)CC3)nc21 [amorphous free base] |  |  |  |  |  |  |  |  |  |  |  |  |  |  |  |  |  |  |  |  | Result (solid form obtained) ([11]; Acetone): Free base crystal form III; Result (solid form obtained) ([11]; Methanol): Free base crystal form I; stability of the solid form in the solvent ([11]; suspension in methanol or acetone, room temperature, 2 days): unstable and easily transformed into other crystal forms |

Continued, in another order:

| Purity (Area%) 40 °C/ 75%RH [2] | Purity (Area%) 60 °C/ Closed [2] | Initial purity (Area%) [2] | XRPD 40 °C/ 75%RH [2] | XRPD 60 °C/ Closed [2] | AUC0-last [6] | AUCINF [6] | Cmax [6] | T1/2 [6] | AUC0-last [5] | AUCINF [5] | Cmax [5] | T1/2 [5] | Tmax [5] | Tmax [6] | Solubility (µg/mL) 2 h [10, 12] | XRPD (24 h) [10, 13] | XRPD (24 h) [10, 14] | SMILES | in vivo exposure levels [5] | in vivo exposure levels [6] | further results |
| --- | --- | --- | --- | --- | --- | --- | --- | --- | --- | --- | --- | --- | --- | --- | --- | --- | --- | --- | --- | --- | --- |
| 97.914 Area% | 98.119 Area% | 98.062 Area% | Unchanged | Unchanged | 3807.0 ng·h/mL | 4179.0 ng·h/mL | 617 ng/mL | 6.87 h | 1781.00 ng·h/mL | 1790.00 ng·h/mL | 247.00 ng/mL | 2.77 h | 5.00 h | 4.0 h | 5.950 µg/mL | Almost amorphous | Unchanged | CCn1ncc2c(Nc3cc(C)[nH]n3)nc([C@H]3CC[C@](OC)(C(=O)N[C@@H](C)c4cnc(-n5cc(F)cn5)cn4)CC3)nc21 [Fumarate crystal form I] | higher than those of free base crystal form I | higher than those of free base crystal form I | solubility at 24 h (physchem [9]; fassif, pH 6.49): 22.7 µg/mL; solubility at 0.5 h (physchem [9]; fessif, pH 5): 84.2 µg/mL; solubility at 2 h (physchem [9]; fessif, pH 5): 28.5 µg/mL; solubility at 24 h (physchem [9]; fessif, pH 5): 20.9 µg/mL; solubility at 0.5 h (physchem [9]; sgf): 210 µg/mL; solubility at 0.5 h (physchem [9]; sgf, pH 1.19): 210 µg/mL; solubility at 2 h (physchem [9]; sgf, pH 1.19): 204 µg/mL; solubility at 24 h (physchem [9]; sgf, pH 1.19): 78.1 µg/mL; XRPD (24 h) [10, 15]: Unchanged; XRPD (24 h) [10, 16]: Unchanged |
| 98.742 Area% | 98.753 Area% | 98.772 Area% | Unchanged | Unchanged |  |  |  |  | 1209.00 ng·h/mL | 1217.00 ng·h/mL | 177.00 ng/mL | 2.31 h | 3.00 h |  | 2.650 µg/mL | Changed | Almost amorphous | CCn1ncc2c(Nc3cc(C)[nH]n3)nc([C@H]3CC[C@](OC)(C(=O)N[C@@H](C)c4cnc(-n5cc(F)cn5)cn4)CC3)nc21 [Malate crystal form I] | higher than those of free base crystal form I | higher than those of free base crystal form I | Solubility (µg/mL) 0.5 h ([10]; FeSSIF (pH=5.00), 30 min): 58.771 µg/mL; Solubility (µg/mL) 2 h ([10]; FeSSIF (pH=5.00)): 19.818 µg/mL; Solubility (µg/mL) 24 h ([10]; FeSSIF (pH=5.00)): 16.658 µg/mL; Solubility (µg/mL) 0.5 h ([10]; SGF (pH=1.19), 30 min): 204.753 µg/mL; Solubility (µg/mL) 2 h ([10]; SGF (pH=1.19)): 113.155 µg/mL; Solubility (µg/mL) 24 h ([10]; SGF (pH=1.19)): 79.977 µg/mL; maximum solubility ([10]; SGF medium at 0.5 hours, 30 min): 200 µg/mL; XRPD (24 h) [10, 15]: Changed; XRPD (24 h) [10, 16]: Unchanged |
